Results reported in patent US20230174946A1, “ORGAN INFECTION MODELS” (priority 2020, published 2023).
Where two headings read alike, the source gives them in different places.

Experiments:
SARS-CoV-2 [1] = type: cell-based; conditions: 10 µM Hydroxychloroquine or Remdesivir, 100 units/ml IFNB1
SARS-CoV-2 [2] = type: cell-based; conditions: for effect on viral N gene RNA / viral replication in proximal ALI cultures (in words): pre-treatment, 10 µM Hydroxychloroquine or Remdesivir, 100 units/ml IFNB1
SARS-CoV-2 [3] = type: cell-based; conditions: 10 µM Hydroxychloroquine or Remdesivir, 100 units/ml IFNB1; for reduction in viral N gene RNA/expression compared to untreated infected organoids: human 3D alveolar organoids
coxsackievirus = conditions: dose-dependent; previous study; cited from earlier work

Row | Compound | reduction in viral N gene RNA/expression compared to untreated infected AT2 cultures (SARS-CoV-2 [1]) | effect on viral infection/replication in AT2 cultures (in words) (SARS-CoV-2 [1]; pre-treatment) | effect on viral N gene RNA / viral replication in proximal ALI cultures (in words) (SARS-CoV-2 [2]) | effect on viral N gene RNA / viral replication in proximal ALI cultures (in words) (SARS-CoV-2 [2]; listed as hydroxychloroquine) | reduction in viral N gene RNA/expression compared to untreated infected organoids (SARS-CoV-2 [3]) | effect on viral replication in alveolar organoid cultures (in words) (SARS-CoV-2 [3]; pre-treatment) | reduction in viral N gene RNA abundance (SARS-CoV-2 [2]) | effect on coxsackievirus proliferation in vitro (coxsackievirus)
1 | CCN(CCO)CCCC(C)Nc1ccnc2cc(Cl)ccc12 (stereo not shown) [Hydroxychloroquine] | 2.4 log | significantly reduced viral replication | did not show a significant effect | did not have an effect on viral replication | 2.4 log | significantly reduced viral replication | – | –
2 | CCC(CC)COC(=O)[C@H](C)N[P@](=O)(OC[C@H]1O[C@@](C#N)(c2ccc3c(N)ncnn23)[C@H](O)[C@@H]1O)Oc1ccccc1 [Remdesivir] | 9 log | – | – | – | 9 log | – | 10.2 log | –
3 | NC(=O)c1ncn([C@@H]2O[C@H](CO)[C@@H](O)[C@H]2O)n1 [ribavirin] | – | – | – | – | – | – | – | significantly reduce coxsackievirus proliferation
